Results from patent US7250304B2, “Functional assay of high-density lipoprotein” (The Regents of the University of California, priority 2000, dated 2007).

Legend:
HAEC monolayers = test: Monocyte adhesion assay; assay type: cell-based, human; settings: LDL 250 μg pre-incubated with agent 4 hrs, re-isolated
Description: In brief, HAEC monolayers, in 48-well tissue culture plates were incubated with the desired LDL or phospholipid for 4 hrs at 37° C. as described (Watson et al. (1995) J. Clin. Invest. 96: 2882-2891). After washing, a suspension of human peripheral blood monocytes was added and incubated for 10 min. The loosely adherent monocytes were then washed away, the monolayers were fixed and the number of adherent monocytes counted in 9 high power microscopic fields.
Freshly isolated LDL (250 μg) was incubated with pure 13(S)-HPODE (1.0 μg) in 10% LPDS in M 199 for 4 hrs at 37° C. with gentle mixing. LDL was re-isolated by centrifugation and was incubated with monolayers of human aortic endothelial cells. […] The endothelial monolayer was washed after each time point and a monocyte suspension was added, incubated, washed, and the number of adherent monocytes determined.
Freshly isolated LDL (250 μg) was incubated with 10 units of pure soybean lipoxygenase bound to sepharose beads for 4 hrs at 37° C. with gentle mixing. […] The endothelial monolayer was washed after each time point and monocyte adhesion determined.
Blood samples were collected from patients referred to the cardiac catheterization laboratory at The Center for Health Sciences at the University of California, Los Angeles. […] The HDL-Ox-PAPC mixture was then added to endothelial monolayers and monocyte binding was determined.

[1] = system: human aortic endothelial cells; test: Lipid hydroperoxide formation when treated LDL is added to HAEC; assay type: cell-based; settings: LDL 250 μg pre-incubated with agent 4 hrs, re-isolated
Description: Freshly isolated LDL (250 μg) was incubated with pure 13(S)-HPODE (1.0 μg) in 10% LPDS in M 199 for 4 hrs at 37° C. with gentle mixing. LDL was re-isolated by centrifugation and was incubated with monolayers of human aortic endothelial cells. Supernatants were removed at time points ranging from zero to 5 hours and were assayed for lipid hydroperoxide content. The endothelial monolayer was washed after each time point and a monocyte suspension was added, incubated, washed, and the number of adherent monocytes determined.
Freshly isolated LDL (250 μg) was incubated with 10 units of pure soybean lipoxygenase bound to sepharose beads for 4 hrs at 37° C. with gentle mixing. LDL was re-isolated by centrifugation and incubated with monolayers of HAEC. Supernatants were removed at time points ranging from zero to 4 hours and were assayed for lipid hydroperoxide content. The endothelial monolayer was washed after each time point and monocyte adhesion determined.
(§1) Statistical significance was determined by model 1 ANOVA. […] Significance is defined as p<0.05.

[2] = Non-enzymatic oxidation of PAPC to POVPC, PGPC, PEIPC (ESI-MS); settings: for amount that significantly decreased PAPC and increased the three oxidized phospholipids: added to 10 μg of PAPC for 8 hours
[3] = Non-enzymatic formation of cholesteryl linoleate hydroperoxide (RP-HPLC); settings: 0.5 μg/ml with cholesteryl linoleate 10 μg/ml, air oxidation 6 hrs
Description: […] 0.5 μg/ml (Panel A) or cholesteryl linoleate 10 μg/ml (Panel B) or cholesteryl linoleate 10 μg/ml together with 13(S) HPODE 0.5 μg/ml (Panel C) in chloroform/methanol (2:1, v/v) containing 0.01% BHT was briefly swirled to mix and evaporated to dryness under argon and allowed to undergo air oxidation in a laminar flow hood for 6 hrs. The lipids were solubilized in 50 μl of chloroform and analyzed for the presence of cholesteryl linoleate hydroperoxide (Ch18:2-OOH) by RP-HPLC as described herein.
Fast performance liquid chromatography (FPLC) and reverse phase high performance liquid chromatography ([…]) were performed as described in example 1. For the detection of cholesteryl linoleate hydroperoxide an Alltech Alltima 250×4.6 mm, 5 micron RP-HPLC C18 column was used to separate and detect cholesteryl linoleate hydroperoxide at 234 nm and cholesteryl linoleate at 205 nm. The mobile solvent consisted of acetonitrile/2-propanol/water (44:54:2, v/v/v) at 1.0 ml/min. Lipids were resuspended in the mobile solvent for injection.

[4] = system: human artery wall cell cocultures; test: LDL oxidation by human artery wall cell cocultures (lipid hydroperoxides); assay type: cell-based; settings: for reduction in lipid hydroperoxide levels: cocultures preincubated with inhibitor 1×10^−8 mol/L before addition of LDL 250 μg/ml, 8 hrs; for oxidation of LDL by fatty acid pretreated artery wall cells: cocultures 18 hours with 100 μM fatty acid, washed, then LDL 250 μg/ml; for ability of pretreated artery wall cocultures to oxidize LDL: cocultures incubated 8 hrs with agent, agent removed before LDL 250 μg/ml
Description: (§2) The wells of the microtiter plates were treated with 0.1% gelatin at 37° C. overnight. HASMC were added at a confluent density of 1×10^5 cells/cm^2. Cells were cultured for 2 d at which time they had covered the entire surface of the well and had produced a substantial amount of extracellular matrix. HAEC were subsequently added at 2×10^5 cells/cm^2 and were allowed to grow forming a complete monolayer of confluent HAEC in 2 d. In all experiments, HAEC and autologous HASMC (from the same donor) were used at passage levels of four to six.
(§3) In general, the cocultures were treated with native LDL (250 μg/ml) in the absence or presence of HDL for 8 h. The supernatants were collected and used for determination of lipid hydroperoxide levels. The cocultures were subsequently washed and fresh culture medium 199 (M199) without any additions was added and incubated for an additional 8 hrs. This allowed the collection of monocyte chemotactic activity released by the cells as a result of stimulation by the oxidized LDL. At the end of incubation, the supernatants were collected from cocultures, diluted 40-fold, and assayed for monocyte chemotactic activity. Briefly, the supernatant was added to a standard Neuroprobe chamber (NeuroProbe, Cabin John, Md.), with monocytes added to the top. The chamber was incubated for 60 min at 37° C. After the incubation, the chamber was disassembled and the nonmigrated monocytes were wiped off. The membrane was then air dried and fixed with 1% glutaraldehyde and stained with 0.1% Crystal Violet dye. The number of migrated monocytes was determined microscopically and expressed as the mean±SD of 12 standardized high power fields counted in quadruple wells.
as §1
Human artery wall cocultures were preincubated with ETYA at a concentration of 10^−8 mol/L or with cinnamyl-3,4-dihydroxy-α-cyanocynamate (CDC, from Biomol) at a concentration of 10^−8 mol/L in M199 containing 10% LPDS for 30 min. The cocultures were then washed and LDL was added at 250 μg/ml and incubated for 8 hrs.

[5] = system: human artery wall cell cocultures; test: Monocyte chemotaxis assay on coculture conditioned medium; assay type: cell-based; settings: for decrease in LDL-induced monocyte chemotactic activity: cocultures preincubated with inhibitor 1×10^−8 mol/L before addition of LDL 250 μg/ml; for LDL-induced monocyte chemotaxis in fatty acid pretreated cocultures: cocultures 18 hours with 100 μM fatty acid, washed, then LDL; for LDL-induced monocyte chemotaxis in pretreated cocultures: cocultures incubated 8 hrs with agent, agent removed before LDL
Description: as §2
Monocytes were isolated using a modification of the Recalde method as previously described (Fogelman et al. (1988) J. Lipid Res. 29: 1243-1247) from the blood of normal volunteers after obtaining written consent under a protocol approved by the human research subject protection committee of the University of California, Los Angeles.
as §3

[6] = system: human artery wall cell cocultures; test: Hydroperoxide content of apo A-I lipid extract from fatty acid treated cocultures; assay type: cell-based; settings: cocultures with or without C18:2, then apo A-I 100 μg/ml 3 hrs
Description: The medium was removed and the cultures washed three times. Fresh medium without fatty acids was added and the cultures were incubated at 37° C. for an additional 3 hrs. […] at 250 μg/ml was then added to one set of the cocultures in M199 containing 10% LPDS and incubated for 8 hrs. The medium was then removed and lipid hydroperoxides (Panel A) and monocyte chemotactic activity (Panel B) determined. To the second set of cocultures (Panel C) apo A-I was added at 100 μg/ml and incubated for three more hours with gentle mixing at 37° C. […] Values are mean±SD of triplicate determinations. The asterisks denote p<0.001. […] (1991) Drug Metab. Dispos. 19: 100-106). Statistical significance was determined by model 1 ANOVA. […] Significance is defined as p<0.05.

paraoxonase = settings: mice, six hours after injection

Compound: CCCCC[C@@H](/C=C/C=C\CCCCCCCC(=O)O)OO [13(S)-HPODE, 13(S)-hydroperoxyoctadecadienoic acid]
- monocyte adherence to HAEC induced by treated LDL (HAEC monolayers): increased monocyte adherence to HAEC
- formation of lipid hydroperoxides when treated LDL added to HAEC [1]: increased the formation of lipid hydroperoxides
- ability to oxidize PAPC on a molar basis relative to hydrogen peroxide [2]: more than two orders of magnitude greater
- formation of POVPC, PGPC, PEIPC from PAPC as a function of time ([2]; 1.0 μg added to 10 μg PAPC, air oxidation): enhanced the formation of the three biologically active oxidized phospholipids at each time point sampled
- amount that significantly decreased PAPC and increased the three oxidized phospholipids [2]: 0.5 µg
- non-enzymatic formation of cholesteryl linoleate hydroperoxide (Ch18:2-OOH) [3]: markedly stimulated the non-enzymatic formation of cholesteryl linoleate hydroperoxide

Compound: CCCCC[C@@H](/C=C/C=C\C/C=C\C/C=C\CCCC(=O)O)OO [15(S)-HPETE, 15(S)-hydroperoxyeicosatetraenoic acid]
- ability to oxidize PAPC on a molar basis relative to hydrogen peroxide [2]: more than two orders of magnitude greater
- amount that significantly decreased PAPC and increased the three oxidized phospholipids [2]: 0.5 µg

Compound: N#CC(=Cc1ccc(O)c(O)c1)C(=O)OCC=Cc1ccccc1 [CDC, cinnamyl-3,4-dihydroxy-α-cyanocynamate]
- reduction in lipid hydroperoxide levels [4]: 73±6%
- decrease in LDL-induced monocyte chemotactic activity [5]: 74±11%

Compound: CCCCCC#CCC#CCC#CCC#CCCCC(=O)O [ETYA, 5,8,11,14-eicosatetraynoic acid]
- reduction in lipid hydroperoxide levels [4]: 80±7%
- decrease in LDL-induced monocyte chemotactic activity [5]: 75±10%

Compound: CCCCC/C=C\C/C=C\C/C=C\C/C=C\CCCC(=O)O [arachidonic acid]
- oxidation of LDL by fatty acid pretreated artery wall cells [4]: even more potent than linoleic acid

Compound: OO [hydrogen peroxide]
- effect on relative abundance of PAPC and formation of oxidized phospholipids ([2]; 2 mM and 4 mM, 10 μg PAPC, 8 hours): had no effect
- effect on relative abundance of PAPC ([2]; 8 mM added to 10 μg PAPC for 8 hours): dramatically decreased the relative abundance of PAPC

Compound: CCCCC/C=C\C/C=C\CCCCCCCC(=O)O [linoleic acid]
- oxidation of LDL by fatty acid pretreated artery wall cells [4]: stimulates the oxidation of LDL by artery wall cells
- LDL-induced monocyte chemotaxis in fatty acid pretreated cocultures [5]: stimulates LDL-induced monocyte chemotaxis
- 13-HPODE equivalents in the lipid extract of apo A-I [6]: dramatically increased the 13-HPODE equivalents

Compound: CCCCCCCC/C=C\CCCCCCCC(=O)O [oleic acid]
- oxidation of LDL by fatty acid pretreated artery wall cells [4]: not
- LDL-induced monocyte chemotaxis in fatty acid pretreated cocultures [5]: not

Compound: DWL KAF YDK VAE KLK EAF PDW LKA FYD KVA EKL KEA F (DWLKAFYDKVAEKLKEAFPDWLKAFYDKVAEKLKEAF; Synthetic apo A-I peptide mimetic) [37 pA]
- ability of pretreated artery wall cocultures to oxidize LDL [4]: unable to oxidize the added LDL
- LDL-induced monocyte chemotaxis in pretreated cocultures [5]: did not induce monocyte chemotaxis
- LDL-induced monocyte chemotactic activity of LDL pre-incubated with the agent ([5]; human LDL incubated with agent, re-isolated, then cocultures): did not induce monocyte chemotactic activity

Compound: apo A-II: Human apo A-II obtained from Sigma
- ability of pretreated artery wall cocultures to oxidize LDL [4]: retained their ability to oxidize LDL
- LDL-induced monocyte chemotaxis in pretreated cocultures [5]: induce monocyte chemotaxis
- PON activity in plasma and HDL, increase (paraoxonase): did not change
